Data set [1] relates to QG-56. Description: Antiproliferative activity against human QG56 cells. The format is functional, cell-based.
In data set [2] the target is Protein farnesyltransferase (Homo sapiens, UniProt P49354+P49356). The experiment in a line: Inhibition of human FTase. The class given is protein-complex assay.
A short description of data set [3]: Cmax in mouse at 25 mg/kg, po. Also noted: dose 25 mg/kg, route oral. The conditions noted are these: in vivo. The class given is ADME, organism-based.
Data set [4] is described as follows: Oral bioavailability in mouse at 25 mg/kg. The class given is ADME, organism-based. The conditions noted are these: in vivo.
Data set [5] in a line: AUC (0 to 24 hrs) in mouse at 25 mg/kg, iv. The format is ADME, organism-based. More on the design: time < 24 hr, dose 25 mg/kg, route intravenous. As to conditions: plasma.
Data set [6] can be described thus: Apparent oral clearance in mouse at 100 mg/kg, po. More on the design: dose 100 mg/kg, route oral. The class given is ADME, organism-based. As to conditions: in vivo.
Data set [7] in a line: Half life in mouse at 100 mg/kg, po. The conditions noted are these: in vivo. More on the design: dose 100 mg/kg, route oral. The format is ADME, organism-based.
A short description of data set [8]: AUC (0 to 24 hrs) in mouse at 100 mg/kg, po. More on the design: time < 24 hr, dose 100 mg/kg, route oral. As to conditions: plasma. The class given is ADME, organism-based.
For data set [9], the system named is QG-56. Description: Toxicity in mouse xenografted with human QG56 cells assessed as reduction of body weight loss at 200 mg/kg, po administered 5 times a week for 2 weeks. Also noted: dose 200 mg/kg. The format is functional, organism-based.
Data set [10] is described as follows: Cmax in mouse at 100 mg/kg, po. The class given is ADME, organism-based. As to conditions: in vivo. Also noted: dose 100 mg/kg, route oral.
A short description of data set [11]: Apparent oral clearance in mouse at 25 mg/kg, po. The format is ADME, organism-based. More on the design: dose 25 mg/kg, route oral. As to conditions: in vivo.
The nature of data set [12]: Oral bioavailability in mouse at 100 mg/kg. The format is ADME, organism-based. The conditions noted are these: in vivo.
The nature of data set [13]: Half life in mouse at 25 mg/kg, iv. Also noted: dose 25 mg/kg, route intravenous. As to conditions: in vivo. The format is ADME, organism-based.
Data set [14] in a line: AUC (0 to 24 hrs) in mouse at 25 mg/kg, po. The class given is ADME, organism-based. More on the design: time < 24 hr, dose 25 mg/kg, route oral. As to conditions: plasma.
In data set [15] the test system is QG-56. The experiment in a line: Antitumor activity against human QG56 cells xenografted in mouse assessed as reduction of tumor volume at 200 mg/kg, po administered 5 times a week for 2 weeks. More on the design: dose 200 mg/kg. The format is functional, organism-based.
Data set [16] can be described thus: Half life in mouse at 25 mg/kg, po. The format is ADME, organism-based. More on the design: dose 25 mg/kg, route oral. The conditions noted are these: in vivo.

SMILES strings stand for the structures.

Take `Cn1cncc1C(O)(c1ccc([N+](=O)[O-])cc1)c1cc2cc([N+](=O)[O-])cc(-c3ccccc3)c2o1` (racemic): the IC50 with QG-56 [1] was determined as 547 nM; in [2], 30 nM.

As to `Cn1cncc1C(O)(c1ccc(C#N)cc1)c1cc2cc([N+](=O)[O-])cc(-c3cccc(F)c3)c2o1` (racemic), the IC50 was determined as 145 nM in the data set on QG-56 [1] and 6.3 nM in [2].

For the compound `COc1cccc(-c2cc([N+](=O)[O-])cc3cc(C(O)(c4ccc(C#N)cc4)c4cncn4C)oc23)c1` (racemic), the half-inhibitory concentration (IC50) was found to be 38.8 nM in the data set with QG-56 [1] and 8.5 nM in data set [2].

For the compound `COc1cccc(-c2cc([N+](=O)[O-])cc3cc([C@](N)(c4ccc(C#N)cc4)c4cncn4C)oc23)c1`, the half-maximal inhibitory concentration (IC50) came out at 1.1 nM in the data set on QG-56 [1] and 0.8 nM in [2].

On to `Cn1cncc1C(O)(c1ccc(Cl)cc1)c1cc2cc(C(=O)NN3CCOCC3)cc(-c3ccccc3)c2o1` (racemic), for which inhibition in the data set on QG-56 [1] was half-maximal at 73.6 nM (IC50).

Take `COC(=O)c1cc(-c2cccc(OC)c2)c2oc(C(O)(c3ccc(C#N)cc3)c3cncn3C)cc2c1` (racemic): the IC50 was 36.3 nM with QG-56 [1] and 3.2 nM in [2].

Regarding `COc1ccc(-c2cc([N+](=O)[O-])cc3cc(C(O)(c4ccc(C#N)cc4)c4cncn4C)oc23)cc1` (racemic), the IC50 came to 36 nM in the data set on QG-56 [1] and 4 nM in [2].

Regarding `COc1cccc(-c2cc(CN(C)C)cc3cc(C(O)(c4ccc(C#N)cc4)c4cncn4C)oc23)c1` (racemic), the IC50 in the data set on QG-56 [1] amounted to 142 nM; in data set [2], 11 nM.

`Cn1cncc1[C@@](N)(c1ccc(C#N)cc1)c1cc2cc(C#N)cc(-c3cccc(F)c3)c2o1`: the maximum concentration (Cmax) in [3] was found to be 1570 ng/mL; in data set [10] it was 5010 ng/mL. The figures for the bioavailability in data set [4] and in data set [12] were 66% and 51%, respectively. In addition, the AUC(0-t) at 24 h in data set [5] is 15400 ng·h/mL; in data set [8], 31300 ng·h/mL; in data set [14], 10200 ng·h/mL. In addition, the results for the CL/F in [6] and in [11] were 41 mL/min/kg and 40.8 mL/min/kg, respectively. Also, the half-life is 12.3 h in data set [7], 1.2 h in [13] and 2.4 h in data set [16]. Moreover, the Activity result in the data set on QG-56 [9] was “Not toxic”; in the data set on QG-56 [15], “Non-toxic”. Further, the IC50 came to 2 nM in the data set with QG-56 [1] and 1.1 nM in [2].

For `Cn1cncc1C(O)(c1ccc(C(=O)OC(C)(C)C)cc1)c1cc2cc([N+](=O)[O-])cc(-c3ccccc3)c2o1` (racemic), the IC50 in the data set with QG-56 [1] is 6250 nM; in data set [2], over 1000 nM.

Take `COc1ccc(C(O)(c2cc3cc([N+](=O)[O-])cc(-c4ccccc4)c3o2)c2cncn2C)cc1` (racemic): the IC50 is 4970 nM in the data set with QG-56 [1] and 250 nM in data set [2].

`Cn1cncc1C(O)(c1ccc(C#N)cc1)c1cc2cc([N+](=O)[O-])cc(-c3ccccc3F)c2o1` (racemic): the IC50 in the data set with QG-56 [1] stood at 89.5 nM; in [2], 3.3 nM.

`COc1cccc(-c2cc(C(N)=O)cc3cc(C(O)(c4ccc(C#N)cc4)c4cncn4C)oc23)c1` (racemic): the IC50 in the data set on QG-56 [1] came to 8.2 nM; in [2], 0.9 nM.

With `COc1cccc(-c2cc(CO)cc3cc(C(O)(c4ccc(C#N)cc4)c4cncn4C)oc23)c1` (racemic), the figures for the IC50 (in the data set with QG-56 [1]; in [2]) were 16.8 nM and 1 nM, respectively.

Consider `Cn1cncc1[C@@](N)(c1ccc(C#N)cc1)c1cc2cc(C#N)cc(-c3cccc(C#N)c3)c2o1`, for which the 50% inhibitory concentration (IC50) in the data set with QG-56 [1] is 2 nM; in data set [2] it was 0.7 nM.

As for `Cn1cncc1C(O)(c1ccc(C#N)cc1)c1cc2cc([N+](=O)[O-])cc(-c3ccc(C#N)cc3)c2o1` (racemic), the IC50 in the data set with QG-56 [1] is 32.6 nM; in data set [2], 3.4 nM.

On to `Cn1cncc1[C@@](N)(c1ccc(C#N)cc1)c1cc2cc([N+](=O)[O-])cc(-c3ccccc3)c2o1`, for which the 50% inhibitory concentration (IC50) with QG-56 [1] was 5.9 nM; in [2] it was 1.5 nM.

As for `Cn1cncc1C(O)(c1ccc(I)cc1)c1cc2cc([N+](=O)[O-])cc(-c3ccccc3)c2o1` (racemic), the 50% inhibitory concentration (IC50) in the data set on QG-56 [1] was over 10000 nM; in data set [2], 360 nM.

`Cn1cncc1[C@](N)(c1ccc(C#N)cc1)c1cc2cc([N+](=O)[O-])cc(-c3ccccc3)c2o1`: the IC50 in the data set on QG-56 [1] worked out at 206 nM; in data set [2], 49 nM.

As for `Cn1cncc1C(O)(c1ccc(Cl)cc1)c1cc2cc([N+](=O)[O-])cc(-c3ccccc3)c2o1` (racemic), the results for the IC50 (with QG-56 [1]; in data set [2]) were 1880 nM and 170 nM, respectively.

In the case of `Cn1cncc1C(O)(c1ccc(C#N)cc1)c1cc2cc(C#N)cc(-c3ccccc3)c2o1` (racemic), the IC50 with QG-56 [1] was 14.5 nM; in data set [2] it was 2.4 nM.

As to `Cc1cccc(-c2cc([N+](=O)[O-])cc3cc(C(O)(c4ccc(C#N)cc4)c4cncn4C)oc23)c1` (racemic), the IC50 with QG-56 [1] worked out at 23.2 nM; in [2], 11 nM.

`Cn1cncc1C(O)(c1ccc(C#N)cc1)c1cc2cc([N+](=O)[O-])cc(-c3ccccc3)c2o1` (racemic): the IC50 in the data set on QG-56 [1] came out at 1480 nM; in data set [2], 6.4 nM.

On to `COc1cccc(-c2cc(C#N)cc3cc([C@](N)(c4ccc(C#N)cc4)c4cncn4C)oc23)c1`, for which the half-maximal inhibitory concentration (IC50) in the data set with QG-56 [1] is 1.5 nM; in [2], 1.2 nM.

Turning to `Cn1cncc1C(O)(c1ccc(C(=O)O)cc1)c1cc2cc([N+](=O)[O-])cc(-c3ccccc3)c2o1` (racemic), the IC50 with QG-56 [1] was over 10000 nM; in data set [2] it was 850 nM.

For `Cn1cncc1C(O)(c1ccc(C#N)cc1)c1cc2cc([N+](=O)[O-])cc(-c3ccc(F)cc3)c2o1` (racemic), the IC50 in the data set on QG-56 [1] was 158 nM; in [2], 7.2 nM.

Regarding `Cn1cncc1C(O)(c1ccc(Br)cc1)c1cc2cc([N+](=O)[O-])cc(-c3ccccc3)c2o1` (racemic), the values for the 50% inhibitory concentration (IC50) (in the data set on QG-56 [1]; in data set [2]) were 1480 nM and 360 nM, respectively.

On to `COc1cccc(-c2cc(C(=O)NN3CCOCC3)cc3cc(C(O)(c4ccc(C#N)cc4)c4cncn4C)oc23)c1` (racemic), for which, in data set [2], 2.6 nM corresponded to half-maximal inhibition (IC50).

Compound `Cn1cncc1C(O)(c1ccc(C#N)cc1)c1cc2cc([N+](=O)[O-])cc(-c3cccc(C#N)c3)c2o1` (racemic) returned a half-inhibitory concentration (IC50) in the data set with QG-56 [1] of 22.9 nM.

`COc1cccc(-c2cc(C=O)cc3cc(C(O)(c4ccc(C#N)cc4)c4cncn4C)oc23)c1` (racemic): the figures for the 50% inhibitory concentration (IC50) (with QG-56 [1]; in data set [2]) were 15.2 nM and 2 nM, respectively.
